Assay results published in US12297201B2, “Substituted pyrrolo[2,3-d]pyrimidines as antimicrobials” (BIOVERSYS AG, priority 2018, dated 2025).

Tests used:
[1] = tested on: Staphylococcus aureus (S. aureus) 11540 strain; test: standard microdilution assay to determine MIC against S. aureus; type: cell-based
Method: (§1) The in vitro activity of the compounds of the present disclosure can be determined. Antimicrobial testing is typically performed to determine the minimum inhibitory concentration (MIC). Minimum inhibitory concentrations (MICs) are determined by the microdilution method in a final volume of 100 μl according to protocols outlined by The Clinical and Laboratory Standards Institute (CLSI). Performance standards for reference strains are assessed within the same experimental design to maintain quality control. See, for example, Clinical Laboratory Standards Institute: Methods for dilution antimicrobial susceptibility tests for bacteria that grow aerobically M7-A8. Approved Standard-Eighth Edition. Wayne, Pa.: CLSI; December 2008; and Clinical Laboratory Standards Institute: Performance Standards for Antimicrobial Susceptibility Testing M100-S20; Approved Standard-Twentieth Edition. Wayne, Pa.: CLSI; June 2010. The compounds of the present disclosure were tested for antimicrobial activity. The Compounds 1-105 were run against Escherichia coli (E. coli) strain ATCC25922 and against Staphylococcus aureus (S. aureus) 11540 strain using a standard microdilution assay to determine minimum inhibitory concentrations (MICs). […] It will be recognized by one skilled in the art that the compounds can be assessed against other bacterial organisms and that the presentation of data for activity against Escherichia coli and Staphylococcus aureus are illustrative and in no way is intended to limit the scope of the present disclosure. The compounds of the present disclosure can be assayed against a range of other microorganisms depending upon the performance activity desired to be gathered. Furthermore, the “+” and “−” representation and the selection of a cutoff value of 16 micrograms/mL is also illustrative and in no way is intended to limit the scope of the present disclosure.

[2] = tested on: Escherichia coli (E. coli) strain ATCC25922; test: standard microdilution assay to determine MIC against E. coli; type: cell-based
Method: as §1

Row | SMILES | MIC [1] | MIC [2]
1 | C[C@H](N)CCCc1cc(Cl)c(F)c(-c2cc3cn(-c4ccc([C@@H]5CCC[C@@H](CCOC(=N)N)N5C)cc4)c(=O)nc3[nH]2)c1 [Compound 2] | ≤ 16 µg/mL | ≤ 16 µg/mL
2 | C[C@H](N)CCCc1cc(Cl)c(F)c(-c2cc3cn(-c4ccc([C@@H]5CCC[C@@H](CCOC(=N)N)N5CCCF)cc4)c(=O)nc3[nH]2)c1 [Compound 3] | ≤ 16 µg/mL | ≤ 16 µg/mL
3 | C[C@H](N)CCCc1cc(Cl)c(F)c(-c2cc3cn(-c4ccc([C@@H]5CCC[C@@H](CCOC(=N)N)N5CCC5CCOCC5)cc4)c(=O)nc3[nH]2)c1 [Compound 4] | ≤ 16 µg/mL | ≤ 16 µg/mL
4 | C[C@H](N)CCCc1cc(Cl)c(F)c(-c2cc3cn(-c4ccc([C@@H]5CCC[C@@H](CCOC(=N)N)N5CCF)cc4)c(=O)nc3[nH]2)c1 [Compound 5] | ≤ 16 µg/mL | ≤ 16 µg/mL
5 | COCCN1[C@H](CCOC(=N)N)CCC[C@H]1c1ccc(-n2cc3cc(-c4cc(CCC[C@H](C)N)cc(Cl)c4F)[nH]c3nc2=O)cc1 [Compound 6] | ≤ 16 µg/mL | ≤ 16 µg/mL
6 | CCCN1[C@H](CCOC(=N)N)CCC[C@H]1c1ccc(-n2cc3cc(-c4cc(CCC[C@H](C)N)cc(Cl)c4F)[nH]c3nc2=O)cc1 [Compound 7] | ≤ 16 µg/mL | ≤ 16 µg/mL
7 | CSCCN1[C@H](CCOC(=N)N)CCC[C@H]1c1ccc(-n2cc3cc(-c4cc(CCC[C@H](C)N)cc(Cl)c4F)[nH]c3nc2=O)cc1 [Compound 8] | ≤ 16 µg/mL | ≤ 16 µg/mL
8 | C[C@H](N)CCCc1cc(Cl)c(F)c(-c2cc3cn(-c4ccc([C@@H]5CCC[C@@H](CCOC(=N)N)N5CCC5CC5)cc4)c(=O)nc3[nH]2)c1 [Compound 9] | ≤ 16 µg/mL | ≤ 16 µg/mL
9 | CC(C)CN1[C@H](CCOC(=N)N)CCC[C@H]1c1ccc(-n2cc3cc(-c4cc(CCC[C@H](C)N)cc(Cl)c4F)[nH]c3nc2=O)cc1 [Compound 10] | ≤ 16 µg/mL | ≤ 16 µg/mL
10 | COC(=O)CN1[C@H](CCOC(=N)N)CCC[C@H]1c1ccc(-n2cc3cc(-c4cc(CCC[C@H](C)N)cc(Cl)c4F)[nH]c3nc2=O)cc1 [Compound 11] | ≤ 16 µg/mL | ≤ 16 µg/mL
11 | C[C@H](N)CCCc1cc(Cl)c(F)c(-c2cc3cn(-c4ccc([C@@H]5CCC[C@@H](CCOC(=N)N)N5CCCO)cc4)c(=O)nc3[nH]2)c1 [Compound 12] | ≤ 16 µg/mL | ≤ 16 µg/mL
12 | C=CCN1[C@H](CCOC(=N)N)CCC[C@H]1c1ccc(-n2cc3cc(-c4cc(CCC[C@H](C)N)cc(Cl)c4F)[nH]c3nc2=O)cc1 [Compound 13] | ≤ 16 µg/mL | ≤ 16 µg/mL
13 | CCN1[C@H](CCOC(=N)N)CCC[C@H]1c1ccc(-n2cc3cc(-c4cc(CCC[C@H](C)N)cc(Cl)c4F)[nH]c3nc2=O)cc1 [Compound 14] | ≤ 16 µg/mL | ≤ 16 µg/mL

More lines, now with the values ahead:

Row | MIC [1] | MIC [2] | SMILES
14 | ≤ 16 µg/mL | ≤ 16 µg/mL | C[C@H](N)CCCc1cc(Cl)c(F)c(-c2cc3cn(-c4ccc([C@@H]5CCC[C@@H](CCOC(=N)N)N5CCCSC(=N)N)cc4)c(=O)nc3[nH]2)c1 [Compound 15]
15 | ≤ 16 µg/mL | ≤ 16 µg/mL | C[C@H](N)CCCc1cc(Cl)c(F)c(-c2cc3cn(-c4ccc([C@@H]5CCC[C@@H](CCOC(=N)N)N5C5CC5)cc4)c(=O)nc3[nH]2)c1 [Compound 16]
16 | ≤ 16 µg/mL | ≤ 16 µg/mL | CN1[C@H](CCOC(=N)N)CCC[C@H]1c1ccc(-n2cc3cc(-c4cc(CCC[C@@H](N)C5CC5)cc(Cl)c4F)[nH]c3nc2=O)cc1 [Compound 17]
17 | ≤ 16 µg/mL | ≤ 16 µg/mL | C=C[C@H](N)CCCc1cc(Cl)c(F)c(-c2cc3cn(-c4ccc([C@@H]5CCC[C@@H](CCOC(=N)N)N5C)cc4)c(=O)nc3[nH]2)c1 [Compound 18]
18 | ≤ 16 µg/mL | ≤ 16 µg/mL | CN1[C@H](CCOC(=N)N)CCC[C@H]1c1ccc(-n2cc3cc(-c4cc(CCC[C@@H](N)COC(=N)N)cc(Cl)c4F)[nH]c3nc2=O)cc1 [Compound 19]
19 | ≤ 16 µg/mL | ≤ 16 µg/mL | COC(=N)NCC[C@@H]1CCC[C@@H](c2ccc(-n3cc4cc(-c5cc(CCC[C@H](C)N)cc(Cl)c5F)[nH]c4nc3=O)cc2)N1 [Compound 20]
